Peptide text beside a SMILES is read from it.

One data set concerns SARS-CoV-2. The experiment in a line: Antiviral activity against SARS-CoV-2 USA-WA1/2020 infected in African green monkey Vero 76 cells assessed as reduction in virus-induced cytopathic effect measured after 5 days by neutral red dye uptake analysis. It is filed as functional, organism-based. The following applies: Severe acute respiratory syndrome coronavirus 2, USA-WA1/2020, Vero 76, 120 h. In general terms: Cytopathic effects are the visible damage that an infection or toxin causes in cultured cells.

A short description of data set [1]: Bioavailability in CD-1 mouse at 20 mg/kg, ip measured for 24 hrs by LC-MS/MS analysis. The following applies: in vivo. It is filed as ADME, organism-based.

As to `CC(C)(C)NC(=O)N[C@H](C(=O)N1C[C@H]2[C@@H]([C@H]1C(=O)NC(CC1CCC1)C(=O)C(N)=O)C2(C)C)C(C)(C)C` (some centres undefined) [BOCEPREVIR], the concentration for a half-maximal effect (EC50) (in general, the concentration needed to bring the measured effect to its halfway point) with SARS-CoV-2 came to 0.49 µM. For `O=C[C@H](C[C@@H]1CCNC1=O)NC(=O)[C@H](Cc1cccc(F)c1)NC(=O)c1cc2ccccc2[nH]1`, the bioavailability (commonly dose-corrected exposure relative to a reference, in per cent) in data set [1] worked out at 80%. With `CC(C)C[C@H](NC(=O)OCc1ccccc1)C(=O)N[C@@H](C[C@@H]1CCNC1=O)C(O)S(=O)(=O)O` (some centres undefined), the EC50 in the data set with SARS-CoV-2 amounted to 0.49 µM. For the compound `CSCC[C@@H](C=O)NC(=O)[C@H](CC(C)C)NC(=O)[C@H](CC(C)C)NC(C)=O` (Ac-Leu-Leu-Met-aldehyde), in the data set with SARS-CoV-2, the EC50 was found to be 0.49 µM.

Values taken from ChEMBL document CHEMBL5223064, “A review of the latest research on Mpro targeting SARS-COV inhibitors” (RSC Med Chem, 2021).
